Measured values from ChEMBL document CHEMBL3612057, “Discovery of indolizines containing triazine moiety as new leads for the development of antitumoral agents targeting mitotic events” (2015).
Activity calls are given as the source filed them. The rule behind the calls is not given here.

How the values were obtained:
[1] = Cytotoxicity against human Hs578T cells assessed as growth inhibition at 10 uM after 24 hrs by SRB assay; format: functional; details: Hs-578T, read-out: GI
[2] = tested on: RXF 393; assay: Cytotoxicity against human RXF393 cells assessed as growth inhibition at 10 uM after 24 hrs by SRB assay; format: functional; details: RXF 393, 24 h, read-out: GI
[3] = tested on: HOP-92; assay: Cytotoxicity against human HOP92 cells assessed as growth inhibition at 10 uM after 24 hrs by SRB assay; format: functional
[4] = tested on: OVCAR-4; assay: Cytotoxicity against human OVCAR4 cells assessed as growth inhibition at 10 uM after 24 hrs by SRB assay; format: functional; details: for inhibition of growth at 10 µM: OVCAR-4, 24 h, read-out: GI
[5] = tested on: HL-60(TB); assay: Cytotoxicity against human HL-60(TB) cells assessed as growth inhibition at 10 uM after 24 hrs by SRB assay; format: functional
[6] = tested on: OVCAR-3; assay: Cytotoxicity against human OVCAR3 cells assessed as growth inhibition at 10 uM after 24 hrs by SRB assay; format: functional; details: for inhibition of growth at 10 µM: OVCAR-3, 24 h, read-out: GI
[7] = tested on: SK-MEL-5; assay: Cytotoxicity against human SK-MEL-5 cells assessed as growth inhibition at 10 uM after 24 hrs by SRB assay; format: functional
[8] = tested on: A549; assay: Cytotoxicity against human A549 cells assessed as growth inhibition at 10 uM after 24 hrs by SRB assay; format: functional; details: for inhibition of growth at 10 µM: A549, 24 h, read-out: GI
[9] = tested on: NCI-H522; assay: Cytotoxicity against human NCI-H522 cells assessed as growth inhibition at 10 uM after 24 hrs by SRB assay; format: functional
[10] = tested on: SF-539; assay: Cytotoxicity against human SF539 cells assessed as growth inhibition at 10 uM after 24 hrs by SRB assay; format: functional
[11] = tested on: NCI-H226; assay: Cytotoxicity against human NCI-H226 cells assessed as growth inhibition at 10 uM after 24 hrs by SRB assay; format: functional; details: for inhibition of growth at 10 µM: NCI-H226, 24 h, read-out: GI
[12] = tested on: U-251; assay: Cytotoxicity against human U251 cells assessed as growth inhibition at 10 uM after 24 hrs by SRB assay; format: functional
[13] = tested on: SR; assay: Cytotoxicity against human SR cells assessed as growth inhibition at 10 uM after 24 hrs by SRB assay; format: functional
[14] = tested on: TK-10; assay: Cytotoxicity against human TK10 cells assessed as growth inhibition at 10 uM after 24 hrs by SRB assay; format: functional
[15] = tested on: NCI/ADR-RES; assay: Cytotoxicity against human NCI/ADR-RES cells assessed as growth inhibition at 10 uM after 24 hrs by SRB assay; format: functional; details: read-out: GI
[16] = tested on: CCRF-CEM; assay: Cytotoxicity against human CCRF-CEM cells assessed as growth inhibition at 10 uM after 24 hrs by SRB assay; format: functional
[17] = tested on: NCI-H460; assay: Cytotoxicity against human NCI-H460 cells assessed as growth inhibition at 10 uM after 24 hrs by SRB assay; format: functional
[18] = tested on: PC-3; assay: Cytotoxicity against human PC3 cells assessed as growth inhibition at 10 uM after 24 hrs by SRB assay; format: functional; details: for inhibition of growth at 10 µM: PC-3, 24 h, read-out: GI
[19] = tested on: SF-295; assay: Cytotoxicity against human SF295 cells assessed as growth inhibition at 10 uM after 24 hrs by SRB assay; format: functional; details: SF-295, 24 h, read-out: GI
[20] = tested on: K562; assay: Cytotoxicity against human K562 cells assessed as growth inhibition at 10 uM after 24 hrs by SRB assay; format: functional
[21] = tested on: OVCAR-8; assay: Cytotoxicity against human OVCAR8 cells assessed as growth inhibition at 10 uM after 24 hrs by SRB assay; format: functional; details: OVCAR-8, 24 h, read-out: GI
[22] = tested on: UACC-62; assay: Cytotoxicity against human UACC62 cells assessed as growth inhibition at 10 uM after 24 hrs by SRB assay; format: functional
[23] = tested on: ACHN; assay: Cytotoxicity against human ACHN cells assessed as growth inhibition at 10 uM after 24 hrs by SRB assay; format: functional; details: read-out: GI
[24] = tested on: HCT-116; assay: Cytotoxicity against human HCT116 cells assessed as growth inhibition at 10 uM after 24 hrs by SRB assay; format: functional
[25] = tested on: Malme-3M; assay: Cytotoxicity against human MALME-3M cells assessed as growth inhibition at 10 uM after 24 hrs by SRB assay; format: functional; details: for inhibition of growth at 10 µM: read-out: GI
[26] = tested on: SK-MEL-28; assay: Cytotoxicity against human SK-MEL-28 cells assessed as growth inhibition at 10 uM after 24 hrs by SRB assay; format: functional; details: for inhibition of growth at 10 µM: SK-MEL-28, 24 h, read-out: GI
[27] = tested on: 786-0; assay: Cytotoxicity against human 786-0 cells assessed as growth inhibition at 10 uM after 24 hrs by SRB assay; format: functional; details: 786-0, 24 h, read-out: GI
[28] = tested on: SK-OV-3; assay: Cytotoxicity against human SKOV3 cells assessed as growth inhibition at 10 uM after 24 hrs by SRB assay; format: functional; details: for inhibition of growth at 10 µM: SK-OV-3, 24 h, read-out: GI
[29] = tested on: HOP-62; assay: Cytotoxicity against human HOP62 cells assessed as growth inhibition at 10 uM after 24 hrs by SRB assay; format: functional; details: for inhibition of growth at 10 µM: HOP-62, 24 h, read-out: GI
[30] = tested on: MDA-MB-231; assay: Cytotoxicity against human MDA-MB-231 cells assessed as growth inhibition at 10 uM after 24 hrs by SRB assay; format: functional; details: MDA-MB-231, 24 h, read-out: GI
[31] = tested on: MCF7; assay: Cytotoxicity against human MCF7 cells assessed as growth inhibition at 10 uM after 24 hrs by SRB assay; format: functional; details: MCF7, 24 h, read-out: GI
[32] = tested on: MDA-MB-435; assay: Cytotoxicity against human MDA-MB-435 cells assessed as growth inhibition at 10 uM after 24 hrs by SRB assay; format: functional
[33] = tested on: CAKI-1; assay: Cytotoxicity against human CAKI-1 cells assessed as growth inhibition at 10 uM after 24 hrs by SRB assay; format: functional; details: for inhibition of growth at 10 µM: CAKI-1, 24 h, read-out: GI
[34] = tested on: T47D; assay: Cytotoxicity against human T47D cells assessed as growth inhibition at 10 uM after 24 hrs by SRB assay; format: functional; details: read-out: GI
[35] = species: Ovis aries; assay: Inhibition of sheep tubulin polymerization at 100 uM by fluorescence assay
[36] = tested on: UACC-257; assay: Cytotoxicity against human UACC257 cells assessed as growth inhibition at 10 uM after 24 hrs by SRB assay; format: functional
[37] = tested on: SNB-75; assay: Cytotoxicity against human SNB75 cells assessed as growth inhibition at 10 uM after 24 hrs by SRB assay; format: functional; details: SNB-75, 24 h, read-out: GI
[38] = tested on: RPMI-8226; assay: Cytotoxicity against human RPMI8226 cells assessed as growth inhibition at 10 uM after 24 hrs by SRB assay; format: functional

Row | SMILES | inhibition of growth at 10 µM [1] [%] | inhibition of growth at 10 µM [2] [%] | growth inhibition (GI) [3] | inhibition of growth at 10 µM [4] [%] | growth inhibition (GI) [5] | growth inhibition (GI) [7] | inhibition of growth at 10 µM [15] [%] | growth inhibition (GI) [16] | inhibition of growth at 10 µM [19] [%] | growth inhibition (GI) [20] | inhibition of growth at 10 µM [21] [%] | inhibition of growth at 10 µM [23] [%] | inhibition of growth at 10 µM [27] [%] | inhibition of growth at 10 µM [30] [%] | inhibition of growth at 10 µM [31] [%] | growth inhibition (GI) [32] | inhibition of growth at 10 µM [34] [%] | inhibition [35] | inhibition of growth at 10 µM [37] [%] | growth inhibition (GI) [38] | further results
1 | COc1nc(OC)nc(-c2cc(C(=O)c3ccc(Br)cc3)n3c2ccc2ccccc23)n1 | 56 | 61 | inactive | 30 | inactive | inactive | 43 | inactive | 59 | inactive | 50 | 22 | 45 | 80 | 44 | inactive | 31 | inactive | 69 | inactive | inhibition of growth at 10 µM [6]: 31%; inhibition of growth at 10 µM [8]: 49%; growth inhibition (GI) [9]: inactive; growth inhibition (GI) [10]: inactive; inhibition of growth at 10 µM [11]: 35%; growth inhibition (GI) [12]: inactive; growth inhibition (GI) [13]: inactive; growth inhibition (GI) [14]: inactive; inhibition of growth at 10 µM ([17]; NCI-H460, 24 h, read-out: GI): 68%; inhibition of growth at 10 µM [18]: 37%; growth inhibition (GI) [22]: inactive; growth inhibition (GI) [24]: inactive; inhibition of growth at 10 µM [25]: 58%; inhibition of growth at 10 µM [26]: 43%; growth inhibition (GI) [28]: inactive; inhibition of growth at 10 µM [29]: 79%; inhibition of growth at 10 µM [33]: 33%; inhibition of growth at 10 µM ([36]; UACC-257, 24 h, read-out: GI): 30%
2 | COc1ccc(C(=O)c2cc(-c3nc(OC)nc(OC)n3)c3ccccn23)cc1 | 25 | 59 | inactive |  | inactive | inactive | 19 | inactive | 47 | inactive | 16 | 54 | 27 | 50 | 13 | inactive | 17 | inactive | -17 | inactive | growth inhibition (GI) [4]: inactive; growth inhibition (GI) [6]: inactive; inhibition of growth at 10 µM [8]: 21%; inhibition of growth at 10 µM ([9]; NCI-H522, 24 h, read-out: GI): 60%; inhibition of growth at 10 µM ([10]; SF-539, 24 h, read-out: GI): 32%; inhibition of growth at 10 µM [11]: 12%; inhibition of growth at 10 µM ([12]; U-251, 24 h, read-out: GI): 56%; inhibition of growth at 10 µM ([13]; read-out: GI): 19%; inhibition of growth at 10 µM ([14]; TK-10, 24 h, read-out: GI): 18%; growth inhibition (GI) [17]: inactive; inhibition of growth at 10 µM [18]: 18%; inhibition of growth at 10 µM ([22]; UACC-62, 24 h, read-out: GI): 11%; inhibition of growth at 10 µM ([24]; HCT-116, 24 h, read-out: GI): 36%; growth inhibition (GI) [25]: inactive; growth inhibition (GI) [26]: inactive; inhibition of growth at 10 µM [28]: 54%; inhibition of growth at 10 µM [29]: 97%; inhibition of growth at 10 µM [33]: 26%; growth inhibition (GI) [36]: inactive
3 | COc1nc(OC)nc(-c2cc(C(=O)c3ccc(Br)cc3)n3c(C)cccc23)n1 | 22 | 36 | inactive | 18 | inactive | inactive | 14 | inactive | 22 | inactive | 29 | 30 | 14 | 27 | 24 | inactive | 19 | inactive | 75 | inactive | inhibition of growth at 10 µM [6]: 15%; growth inhibition (GI) [8]: inactive; growth inhibition (GI) [9]: inactive; growth inhibition (GI) [10]: inactive; growth inhibition (GI) [11]: inactive; growth inhibition (GI) [12]: inactive; growth inhibition (GI) [13]: inactive; growth inhibition (GI) [14]: inactive; growth inhibition (GI) [17]: inactive; growth inhibition (GI) [18]: inactive; growth inhibition (GI) [22]: inactive; growth inhibition (GI) [24]: inactive; inhibition of growth at 10 µM [25]: 18%; inhibition of growth at 10 µM [26]: 14%; inhibition of growth at 10 µM [28]: 20%; growth inhibition (GI) [29]: inactive; growth inhibition (GI) [33]: inactive; growth inhibition (GI) [36]: inactive
